# Results from patent US20040220149A1, “Nerve cell survival promoters containing cyclic phosphatidic acid derivative” (priority 2001, published 2004).
# Assays:
# Type in all cases: cell-based
# [1] = tested on: primary cultured nerve cells derived from a hippocampus of a rat fetal brain; test: Measurement of the elongation of neurites
# Description: (§1) (A-1) Preparation and Culturing of the Primary Cultured Nerve Cells Derived From a Hippocampus of a Rat Fetal Brain
# (§2) Sprague-Dowley rat with 16 days of pregnancy were used as material. The rat were anesthetized with ether, from which the fetal was taken out. The whole brain was taken out under a stereomicroscope, and a hippocampus inside the cerebral cortex was picked out. The picked out hippocampus was collected in a 15 ml centrifuging tube, and 0.5 ml of 2.5% trypsin and a culture solution was added to be a 5 ml solution. The mixture was incubated at 37° C. for 15 minutes and then centrifuged at 3,000 rpm for 15 minutes. The supernatant was removed, 5 ml of the culture solution was added, and the mixture was centrifuged at 3,000 rpm for 15 minutes. The procedure was additionally repeated twice. After adding 3-5 ml of the culture solution, the resultant was pipetted with a Pasteur pipette and then with an injection needle (TERUMO NEEDLE (0.70×38 mm); made by Terumo). The cells, which were finally dissociated through a cell strainer (FALCON Cell Strainer 70 μm; made by FALCON), were primarily cultured on a plate. A culture liquid and a method for coating a plate which allow the nerve cells to be cultured without aggregation, were studied.
# (A-3) Measurement of the Elongation of Neurites
# In order to study the influence of cPA on the elongation of neurites, the cells were primarily cultured according to the method as described in (A-1), and were photographed at 12, 18 and 24 hours after the start of the culture. The average length of neurites per cell and the number of cells having the neurite at respective time points were analyzed by an image analysis software (NIH Image 1.62).
# 5 μM of oleoyl cPA was added to the cell culture solution, and the cells were photographed after 24, 48, and 72 hours. The average length of neurites per cell was analyzed by the analysis with the image analysis software (NIH Image 1.62). […] The effect was strongest after 24 hours, as compared with those after 48 hours (1.5 times) and 72 hours (1.2 times) (FIG. 10(a)). Thus, it was considered that the evaluation of the action of cPA on the elongation of neurites at earlier time points was necessary, and the effect of cPA at various levels on the elongation of neurites was studied at 12, 18 and 24 hours after addition. As the result, at the time point after 12 hours, the elongation of neurites in the sample to which cPA of 1.0 μM was added became about 1.7 times that of the control, and gave the maximum value (FIG. 10(b)).
# [2] = tested on: NIH-3T3, a mouse-derived fibroblast cell; test: Formation of actin stress fiber in NIH-3T3 by addition of lysophospholipids; settings: 10 μM lipid, 37° C., 30 minutes, serum-starved NIH-3T3, Rhodamine phalloidin staining; control without lipid: no stress fiber
# Description: (A-5) Formation of Stress Fiber in NIH-3T3 by Addition of Various Lysophospholipids
# NIH-3T3, a mouse-derived fibroblast cell, was incubated in a Dulbecoo's Modified Eagle's Medium (DMEM) containing 10% fetal bovine serum (FBS; made by Moregate), and was used in the Experiment. 2.5×10^4 cells of the NIH-3T3 were inoculated in a petri dish (10 cm in diameter) paved with cover glasses of 22 mm in diameter, and the medium was replacing with a FBS-free medium after 24 hours, and the cells were incubated in a serum starvation state for 48 hours. 10 μM of the lysophospholipid was added, and the cells were incubated at 37° C. for 30 minutes for stimulation. Then, the cells were fixed in the Dalbecco's PBS containing 3.7% of paraformaldehyde and 0.1% of Triton X-100 at room temperature for 10 minutes. Thereafter, the cells were stained with 5 units/ml of rhodamine phalloidin (made by Funakoshi) at 37° C. for 1 hour. The cover glasses were washed with PBS thrice, and observation was carried out by a cofocus laser microscope TCS NT Control laser Scanning Microscope (made by Leica).
# The product obtained by the A sp362-derived PLD reaction was studied with respect to its biochemical activity in order to confirm further that it was a compound which is identical to cPA. Namely, the activity of forming actin stress fiber in a fibroblast cell, one of the physiological acteivities of cPA, was studied. To NIH-3T3, i.e. a fibroblast cell line derived from mouse, in the subconfluent state in the serum starvation state, each 10 μM of LPA, a chemically synthesized PHYLPA, or cPA, i.e. the PLD reaction product was added at 37° C. for 30 minutes, and then actin stress fiber was stained with Rhodamine phalloidin, and observation was carried out.
# [3] = tested on: primary cultured nerve cells derived from a hippocampus of a rat fetal brain; test: Survival rate of primary cultured nerve cells derived from rat fetal hippocampus
# Description: as §1
# as §2, with “studied. […]” for “studied.”
# [4] = tested on: primary cultured nerve cells derived from a hippocampus of a rat fetal brain; test: Influence of P13K inhibitors on the increase of nerve cell survival rate by cPA; settings: 10 μM, nerve cell culture with cPA, 48 hours
# Description: Wortmannin (made by Sigma) and LY294002 (made by Sigma), which are inhibitors against phosphatidyl inositol 3-kinase (P13K), were dissolved in DMSO at the concentration of 10 mM and 50 mM respectively, and diluted with PBS. Each of the solutions was added to the cell culture solution at the respective final concentrations of 30 nM and 10 μM. The inhibitors were added to the cell culture solution at 2 hours prior to the addition of cPA, to carry out pretreatment. The cells were photographed at 48 hours after the addition of cPA, and the survival of the cells was morphologically judged on judged on the photographs to calculate the survival rate.
compound,measurement,setting,value
nerve growth factor [NGF],elongation of neurites compared with that of 1.0 μM cPA (about 1.7 times control),"[1]; (optimal level), after 12 hours",comparable
"CCCCCCCC/C=C\CCCCCCCC(=O)OCC1COP(=O)(O)O1 (stereo not shown) [oleoyl cPA, 1-oleoyl cyclic phosphatidic acid]",formation of actin stress fiber,[2],the formation of stress fibers was observed
same,survival of the cells compared with control without cPA addition,"[3]; 5 μM, serum-free culture",the survival of the cells became better
same,cPA level most effective for the cell survival,"[3]; 0.5, 1.0, 5.0 or 10.0 μM tested, cell density 3.0×10^5 cells/cm^2",1.0 µM
same,ratio of cells having neurites,"[1]; 1.0 μM, 24 hours after addition",high
same,elongation of neurites relative to control (maximum value),"[1]; 1.0 μM, after 12 hours",about 1.7 times
same,average length of neurites per cell relative to control,"[1]; 5 μM, after 24 hours",twice longer than that of the control
same,average length of neurites per cell relative to control,"[1]; 5 μM, after 48 hours",1.5 times
same,average length of neurites per cell relative to control,"[1]; 5 μM, after 72 hours",1.2 times
same,elongation of neurites compared with control without cPA addition,"[1]; 5 μM, serum-free culture",the elongation of neurites was also observed
lysophosphatidic acid [LPA],formation of actin stress fiber,[2],the formation of stress fibers was observed
O=c1cc(N2CCOCC2)oc2c(-c3ccccc3)cccc12 [LY294002],cytotoxicity (cell morphology),[4],many cells were destroyed and deformed
CCCCCC[C@@H]1C[C@@H]1CCCCCCCC(=O)OC[C@@H]1COP(=O)(O)O1 [PHYLPA],formation of actin stress fiber,[2],the formation of stress fibers was observed
